For one assay, the target named is T1, Gal4 PPARα (Homo sapiens, UniProt Q07869).
T1 construct: expressed in transfected cells; host or cells: CV1 (African green monkey kidney)
T1 sequence (Q07869 239-466 limits assumed): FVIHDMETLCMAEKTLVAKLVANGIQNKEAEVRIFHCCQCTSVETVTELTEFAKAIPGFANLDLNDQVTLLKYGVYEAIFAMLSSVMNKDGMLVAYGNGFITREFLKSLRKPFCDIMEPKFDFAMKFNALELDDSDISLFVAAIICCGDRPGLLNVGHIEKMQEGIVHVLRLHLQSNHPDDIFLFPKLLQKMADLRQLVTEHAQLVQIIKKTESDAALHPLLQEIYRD
Nature of the assay: Gal4 PPARα reporter functional assay in CV1 cells. The note with it: examined up to 10 μM; luciferase reporter; 24 hours. It is filed as cell-based. The source says:
Gal4 PPARα, Gal4 PPARδ, and PPARγ reporter functional assays are also used to monitor the selectivity of the exemplified compound. CV1 cells, which are derived from the renal tissue of an African green monkey, are transfected with various receptor and reporter plasmids using Fugene. For the Gal4 PPARα and PPARδ assays, a reporter plasmid containing five tandem copies of the yeast transcription protein Gal4 response element, cloned upstream of a firefly luciferase gene driven by the major late promoter of adenovirus, is transfected together with a Simian Virus 40 (SV40) driven plasmid constitutively expressing a hybrid protein containing the Gal4 DNA binding domain (DBD), and either the PPARα or PPARδ ligand binding. For the PPARγ assay, plasmids encoding PPARγ and RXRα, both driven by a cytomegalovirus (CMV) promoter are transfected together with a plasmid containing luciferase reporter cDNA driven by the TK promoter and a receptor response element (2×PPRE). Cells are transfected in T225 cm^2 cell culture flasks in DMEM media with 5% charcoal-stripped FBS. […] After 24 hours incubation with the compound, cells are lysed and luciferase activity is determined as a measure of receptor activation by luminescence. […] The maximum percent stimulation is determined versus maximum stimulation obtained with 10 μM of an appropriate PPAR agonist reference compound. […]
A general note: In a reporter assay the amount or activity of a reporter protein is the signal.

The target of another assay is human GPR40 (Homo sapiens, UniProt O14842). The assay is described as follows: cell-based.

In general, EC50 refers to the concentration at which the effect is half-maximal.

human GPR40, sequence (O14842 whole entry): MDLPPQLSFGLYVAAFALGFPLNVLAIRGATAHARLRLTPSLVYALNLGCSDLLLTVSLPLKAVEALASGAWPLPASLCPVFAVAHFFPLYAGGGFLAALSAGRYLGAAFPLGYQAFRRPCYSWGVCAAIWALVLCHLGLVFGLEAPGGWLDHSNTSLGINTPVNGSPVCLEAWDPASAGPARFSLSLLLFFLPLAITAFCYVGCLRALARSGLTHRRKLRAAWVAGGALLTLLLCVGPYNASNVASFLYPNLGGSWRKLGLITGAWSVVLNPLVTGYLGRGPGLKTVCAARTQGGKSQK

Turning to `CC#C[C@@H](CC(=O)O)c1ccc(OCc2ccc(CN3CCCc4cccc(OC)c43)s2)cc1` [Example 1, (3S)-3-[4-[[5-[(8-Methoxy-3,4-dihydro-2H-quinolin-1-yl)methyl]-2-thienyl]methoxy]phenyl]hex-4-ynoic acid], the “functional activation of PPARα” value on Gal4 PPARα is on record as “No functional activation”. Besides, the EC50 on human GPR40 (EC50, HEK293 cells over expressing human GPR40, 0.1% fatty acid free BSA, FLIPR) is 152 nM; on human GPR40 (EC50 value for the Calcium Flux Primary assay, HEK293 cells over expressing human GPR40, bound stated) it was below 1000 nM.

(Values after patent US8431706B2, “1,2,3,4-tetrahydroqinoline derivative useful for the treatment of diabetes” (Eli Lilly and Company, priority 2011, dated 2013).)
